pIC50: −log10 of the molar value.

The assay has as its target T1, HCV NS3/4A protease complex, BMS strain (genotype 1a) (UniProt P27958, C1454S/C1711G, species not given/STRAIN_BMS).
T1 construct: b1001: DNA encoding the recombinant HCV NS3/4A protease complex (amino acids 1027 to 1711) ... a three-lysine solubilizing tail was added at the 3′-end of the NS4A coding region; fused on or other part: Three-lysine solubilising tail at the C-terminus of NS4A; A His tag is implied by the pET21b vector and Ni-NTA purification
As to the kind of experiment: Recombinant HCV NS3/4A protease complex FRET peptide assay, BMS strain. Format: biochemical. The conditions noted are these: NS3/4A BMS strain; activity range symbols. The essentials: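 Recombinant NS3/4A (aa 1027–1711) from H77C, J4L6S or BMS strains, with C1454S and C1711G mutations and three-lysine tail, expressed in E. coli and Ni-NTA/gel-filtration purified to >90%. Inhibition of cleavage of a FRET peptide substrate measured.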
Regarding `COc1cccc2c(OC3CC4C(=O)NC5(C(=O)NS(=O)(=O)C6CC6)CC5C=CCCCCCC(NC(=O)OC(C)(C)C)C(=O)N4C3)nccc12` (centres unmarked) [Compound 133], the pIC50 was more than 7.30.
On to `COc1ccc2c(OC3CC4C(=O)NC5(C(=O)NS(=O)(=O)C6CC6)CC5C=CCCCCCC(NC(=O)OC(C)(C)C)C(=O)N4C3)nccc2c1OC` (centres unmarked) [Compound 134], for which the pIC50 is more than 7.30.
To `COc1ccc2c(OC3CC4C(=O)NC5(C(=O)NS(=O)(=O)C6CC6)CC5C=CCCCCCC(NC(=O)NC(C)(C)C)C(=O)N4C3)nccc2c1` (centres unmarked) [Compound 135] belongs more than 7.30.
With `COc1ccc2c(OC3CC4C(=O)NC5(C(=O)NS(=O)(=O)C6CC6)CC5C=CCCCCCC(NC(=O)NC5CCCC5)C(=O)N4C3)nccc2c1` (centres unmarked) [Compound 136], the pIC50 is more than 7.30.
In the case of `COc1ccc2c(O[C@@H]3C[C@H]4C(=O)N[C@]5(C(=O)NS(=O)(=O)C6CC6)C[C@H]5/C=C\COCC[C@H](NC(=O)OC(C)(C)C)C(=O)N4C3)nccc2c1` [Compound 141, [(Z)-(1S,4R,13S,17R)-4-cyclopropanesulfonylaminocarbonyl-17-(6-methoxy-isoquinolin-1-yloxy)-2,14-dioxo-10-oxa-3,15-diaza-tricyclo[13.3.0.0^4,6]octadec-7-en-13-yl]-carbamic acid tert-butyl ester] it was 6.30 to 7.30.
To `CC(C)(C)OC(=O)N[C@H]1CN(S(=O)(=O)c2ccccc2[N+](=O)[O-])CCC/C=C\[C@@H]2C[C@@]2(C(=O)NS(=O)(=O)C2CC2)NC(=O)[C@@H]2C[C@@H](Oc3nccc4ccccc34)CN2C1=O` [Compound 145] belongs more than 7.30; to `CC(=O)N1CCC/C=C\[C@@H]2C[C@@]2(C(=O)NS(=O)(=O)C2CC2)NC(=O)[C@@H]2C[C@@H](Oc3nccc4ccccc34)CN2C(=O)[C@@H](NC(=O)OC(C)(C)C)C1` [Compound 146], more than 7.30.
Take `CN1CCC/C=C\[C@@H]2C[C@@]2(C(=O)NS(=O)(=O)C2CC2)NC(=O)[C@@H]2C[C@@H](Oc3nccc4ccccc34)CN2C(=O)[C@@H](NC(=O)OC(C)(C)C)C1` [Compound 147]: the negative logarithm of the IC50 (pIC50) was more than 7.30.
On to `COC(=O)N1CCC/C=C\[C@@H]2C[C@@]2(C(=O)NS(=O)(=O)C2CC2)NC(=O)[C@@H]2C[C@@H](Oc3nccc4ccccc34)CN2C(=O)[C@@H](NC(=O)OC(C)(C)C)C1` [Compound 148], for which the pIC50 is more than 7.30.
To `CC(C)(C)COC(=O)N1CCCC=CC2CC2(C(=O)NS(=O)(=O)C2CC2)NC(=O)C2CC(Oc3nccc4ccccc34)CN2C(=O)C(NC(=O)OC(C)(C)C)C1` (centres unmarked) [Compound 149] belongs more than 7.30; to `CC(C)(C)NC(=O)N1CCC/C=C\[C@@H]2C[C@@]2(C(=O)NS(=O)(=O)C2CC2)NC(=O)[C@@H]2C[C@@H](Oc3nccc4ccccc34)CN2C(=O)[C@@H](NC(=O)OC(C)(C)C)C1` [Compound 150], more than 7.30.
For the compound `CC(C)(C)OC(=O)N[C@H]1CNCCC/C=C\[C@@H]2C[C@@]2(C(=O)NS(=O)(=O)C2CC2)NC(=O)[C@@H]2C[C@@H](Oc3nccc4ccccc34)CN2C1=O` [Compound 151], the pIC50 was more than 7.30.
Consider `CC(C)(C)OC(=O)NC1CN(C(=O)C2CC2)CCCC=CC2CC2(C(=O)NS(=O)(=O)C2CC2)NC(=O)C2CC(Oc3nccc4ccccc34)CN2C1=O` (centres unmarked) [Compound 152], for which the pIC50 is more than 7.30.
In the case of `CC(C)(C)OC(=O)N[C@H]1CN(S(C)(=O)=O)CCC/C=C\[C@@H]2C[C@@]2(C(=O)NS(=O)(=O)C2CC2)NC(=O)[C@@H]2C[C@@H](Oc3nccc4ccccc34)CN2C1=O` [Compound 153] it was more than 7.30.

As a reminder, the pIC50 is the negative decadic logarithm of the IC50, by convention in mol/L.

For the origin of these results see US7173004B2, “Macrocyclic isoquinoline peptide inhibitors of hepatitis C virus” (Bristol-Myers Squibb Company, priority 2003, dated 2007).
